Ends that are not written are not given here.
System: UBE2G2
Assay: CHX chase: UBE2G2 turnover in HT1080 AUP1 KO cells
Type: cell-based, human
Settings: GFP fusion transfected with MYC-UBE2G2, HT1080 AUP1 KO, compared with GFP-SCR
Procedure: Fig 7 G2BR^AUP1 protects UBE2G2 from degradation. (A) Indicated cells were assessed for steady state levels and turnover of endogenous UBE2G2 by CHX chase. (B) Transcript levels of endogenous UBE2G2 in AUP1 KO cells compared to HT1080 as determined by qPCR. Mean and standard deviation from three independent experiments is shown. […] (D) AUP1 KO cells were transfected with plasmids encoding MYC-UBE2G2 and GFP fusions of either a scrambled G2BR (SCR), G2BR^gp78, or G2BR^AUP1, and the turnover of UBE2G2 was assessed. (E) Relative abundance of gp78 (left panel) and AUP1 (right panel) in HT1080 cells was determined by resolving indicated amounts (in pmoles) of purified GST-gp78 (aa 429 to 611) or GST-AUP1 (aa 61 to 410) fusions alongside approximately 1 × 10^4 cellular equivalents of cell lysate and immunoblotting with gp78 or AUP1 antibodies. For each antibody, the amount of immunoreactivity in the lysate was compared to a defined quantity of a GST fusion protein of gp78 or AUP1 spanning the epitope recognized by the probing antibody. […] The data underlying this figure can be found in S1 and S8 Data. aa, amino acid; AUP1, ancient ubiquitous protein 1; CHX, cycloheximide; G2BR, UBE2G2 Binding Region; KO, knockout; qPCR, quantitative polymerase chain reaction; WT, wild type. […]

GFP-G2BR^AUP1: GFP fusion of AUP1 aa 378 to 404 (SSWARQESLQERKQALYEYARRRFTER; also: GFP fusion; UniProt Q9Y679 378-404, looked up, fragment)
UBE2G2 degradation and steady state level: protected UBE2G2 from degradation and increased the steady state level of this E2

Reference: paper PMC8699718, “A structurally conserved site in AUP1 binds the E2 enzyme UBE2G2 and is essential for ER-associated degradation” (PLoS Biology, 2021)
